Read-outs that look alike come from different tables or passages of the source.
Key:
[1] = molecular target: T1, GAL4 DBD (1-147)-CfEcR(DEF)/VP16AD-βRXREF-LmUSPEF (Choristoneura fumiferana, UniProt O77240); assay: cell-based; conditions: for fold induction at 33.3 µM: 48 h, read-out: Fold Induction Average, 27-63 assay; for Rel Max FI, 27-63 assay: maximum fold induction relative to that of GS-E ligand
T1 construct: The wild-type D, E, and F domains from spruce budworm Choristoneura fumiferana EcR (“CfEcR-DEF”)
In short: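 CHO clone stably carrying the GAL4-DBD–spruce budworm EcR(DEF) and VP16–RXR/USP chimeric receptor with a GAL4-responsive luciferase reporter; ligand added from DMSO stock diluted 300-fold.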

Bombyx mori EcR (VBE) = molecular target: T2, Bombyx mori EcR (VBE) (Bombyx mori, UniProt P49881); assay: Z3 assay: β-galactosidase reporter gene induction in HEK-293 clone Z3 (CVBE / 6XEcRE LacZ); format: cell-based; conditions: for fold induction at 33 µM: HEK293, 48 h, read-out: Fold Induction Average, Z3 assay; for Rel Max FI, Z3 assay: maximum fold induction relative to that of GS-E ligand
T2 construct: expressed in transfected cells; host or cells: Human HEK-293 cells, retrovirally infected, clone Z3
T2 sequence (P49881 86-606 limits assumed): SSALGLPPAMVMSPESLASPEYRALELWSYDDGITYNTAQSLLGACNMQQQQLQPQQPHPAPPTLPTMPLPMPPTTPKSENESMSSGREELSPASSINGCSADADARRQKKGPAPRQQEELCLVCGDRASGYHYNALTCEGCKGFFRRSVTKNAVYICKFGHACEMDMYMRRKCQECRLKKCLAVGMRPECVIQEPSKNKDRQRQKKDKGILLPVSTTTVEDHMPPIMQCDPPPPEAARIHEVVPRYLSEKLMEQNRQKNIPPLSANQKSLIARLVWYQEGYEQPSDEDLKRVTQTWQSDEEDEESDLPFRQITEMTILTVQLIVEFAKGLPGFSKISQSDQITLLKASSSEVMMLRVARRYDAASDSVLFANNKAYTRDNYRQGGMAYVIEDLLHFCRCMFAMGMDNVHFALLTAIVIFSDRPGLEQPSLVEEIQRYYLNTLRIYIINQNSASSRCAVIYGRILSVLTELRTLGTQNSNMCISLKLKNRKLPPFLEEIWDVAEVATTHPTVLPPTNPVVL
T2 sequence (P19793 1-462 partner): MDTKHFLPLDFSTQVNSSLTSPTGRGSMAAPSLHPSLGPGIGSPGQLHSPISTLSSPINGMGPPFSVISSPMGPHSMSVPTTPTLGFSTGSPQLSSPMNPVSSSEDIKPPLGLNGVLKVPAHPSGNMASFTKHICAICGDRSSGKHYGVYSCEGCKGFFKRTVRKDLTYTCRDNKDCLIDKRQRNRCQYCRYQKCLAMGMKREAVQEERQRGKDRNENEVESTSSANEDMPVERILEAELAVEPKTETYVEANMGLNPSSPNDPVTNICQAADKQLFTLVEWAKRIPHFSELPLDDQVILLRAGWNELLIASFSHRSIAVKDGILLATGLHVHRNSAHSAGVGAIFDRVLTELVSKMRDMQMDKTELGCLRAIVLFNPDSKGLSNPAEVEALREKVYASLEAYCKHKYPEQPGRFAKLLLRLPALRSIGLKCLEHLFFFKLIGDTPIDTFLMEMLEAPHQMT

WFN (white fly) = assay: Insect toxicity contact bioassay, WFN; format: in vivo; conditions: for Insect Toxicity LC50, WFN: in vivo
Method: (§1) The compound to be evaluated was dissolved in an appropriate solvent, usually a mix of acetone, methanol, and water. Test solutions were made by serial dilution of a stock test solution with acetone, methanol, and water. Initial evaluations were made at one or more concentrations on one or more of the following insects:
(§2) Contact bioassays (green peach aphid, two-spotted spider mite, white fly) were conducted by applying a solution of the test compound to the inside surface of a Petri dish. The solution was allowed to air-dry, then each dish was infested and the larvae from each treatment were transferred to a bioassay tray. The trays were held for one to seven days, and the mortality rating was determined for each treatment.

Tobacco Budworm = assay: Insect toxicity bioassay, TBW; format: in vivo; conditions: in vivo
Method: as §1
(§3) Feeding bioassays were conducted in bioassay trays containing insect diet. Treatments were made by applying 50 μL of test solution to the surface of the diet in each of 5 wells. After the test solution dried, each well was infested with a single neonate larva. The trays were held for six days and then the mortality rating was determined for each treatment.
Some of the tobacco budworm tests were conducted as follows. A test solution containing 600 ppm was made by dissolving a compound of the invention in a 1:1 acetone:methanol solution, then adding water to give a 5:5:90 acetone:methanol:water solution, and finally a surfactant was added at an equivalent of 7.37 g of surfactant per 100 L of test solution (1 ounce of surfactant per 100 gallons of test solution). Appropriate dilutions were prepared in water from the 600 ppm solution. A detached cotton leaf, Gossypium hirsutum was placed on moistened filter paper in a Petri dish (100×20 mms). The leaf was sprayed with the test solution using a rotating turntable sprayer and allowed to dry. The dish was infested with 10 first instar larvae of the tobacco budworm and covered with the lid. If the larvae were alive two days after treatment, fresh untreated cotton leaves were added. All treatments were maintained at 23.9-26.7° C. (75-80° F.) under fluorescent light in a well-ventilated room. Percent mortality was determined at four days after treatment.

[2] = molecular target: T3, GAL4 DBD-CfEcR(DEF)/VP16AD-MmRXRE (Choristoneura fumiferana, UniProt O77240); assay: 13B3 assay: luciferase reporter gene induction in stable CHO clone 13B3; format: cell-based; conditions: for fold induction at 33.3 µM: 48 h, read-out: Fold Induction Average, 13B3 assay; for Rel Max FI, 13B3 assay: maximum fold induction relative to that of GS-E ligand
T3 construct: The wild-type D, E, and F domains from spruce budworm Choristoneura fumiferana EcR (“CfEcR-DEF”)
In short: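 Stable CHO clone 13B3 co-expressing GAL4 DBD-CfEcR(DEF) and VP16AD-MmRXRE with a GAL4 RE-luciferase reporter; ligands from DMSO stocks diluted 300-fold. Luciferase read by luminescence 48 h after treatment, duplicate wells averaged. Fold induction = RLU treated/RLU DMSO; EC50 from three-parameter logistic fit.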

Beet Armyworm = assay: Insect toxicity feeding bioassay, BAW; format: in vivo; conditions: in vivo
Method: as §1, §3

[3] = test system: MTA (two-spotted spider mite); assay: Insect toxicity contact bioassay, MTA; format: in vivo; conditions: for Insect Toxicity LC50, MTA: in vivo
Method: as §1, §2

Cabbage Looper = assay: Insect toxicity feeding bioassay, CL; format: in vivo; conditions: in vivo
Method: as §1, §3

[4] = molecular target: CfEcR (CDEF)/CfUSP, GST fusion protein (Choristoneura fumiferana, UniProt O77240); assay: CfEcR (CDEF)/CfUSP GST fusion protein assay; format: binding
Plodia = Plodia EC50; format: cell-based
Kc = Kc EC50; format: cell-based

Sequence of CfEcR (CDEF)/CfUSP, GST fusion protein (O77240 entry or part of it): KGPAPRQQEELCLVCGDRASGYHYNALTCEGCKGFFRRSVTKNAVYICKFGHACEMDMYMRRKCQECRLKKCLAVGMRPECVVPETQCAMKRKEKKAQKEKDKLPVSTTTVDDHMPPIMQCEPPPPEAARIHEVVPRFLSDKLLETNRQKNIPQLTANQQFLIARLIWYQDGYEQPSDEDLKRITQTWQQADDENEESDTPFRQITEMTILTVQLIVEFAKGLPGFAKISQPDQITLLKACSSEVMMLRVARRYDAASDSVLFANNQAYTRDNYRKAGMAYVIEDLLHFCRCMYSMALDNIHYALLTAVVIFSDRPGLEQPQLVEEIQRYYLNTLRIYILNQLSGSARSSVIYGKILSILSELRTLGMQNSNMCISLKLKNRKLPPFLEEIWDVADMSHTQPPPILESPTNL
Sequence of CfEcR (CDEF)/CfUSP, GST fusion protein (O76202 whole entry, further chain, the tested form may be a part): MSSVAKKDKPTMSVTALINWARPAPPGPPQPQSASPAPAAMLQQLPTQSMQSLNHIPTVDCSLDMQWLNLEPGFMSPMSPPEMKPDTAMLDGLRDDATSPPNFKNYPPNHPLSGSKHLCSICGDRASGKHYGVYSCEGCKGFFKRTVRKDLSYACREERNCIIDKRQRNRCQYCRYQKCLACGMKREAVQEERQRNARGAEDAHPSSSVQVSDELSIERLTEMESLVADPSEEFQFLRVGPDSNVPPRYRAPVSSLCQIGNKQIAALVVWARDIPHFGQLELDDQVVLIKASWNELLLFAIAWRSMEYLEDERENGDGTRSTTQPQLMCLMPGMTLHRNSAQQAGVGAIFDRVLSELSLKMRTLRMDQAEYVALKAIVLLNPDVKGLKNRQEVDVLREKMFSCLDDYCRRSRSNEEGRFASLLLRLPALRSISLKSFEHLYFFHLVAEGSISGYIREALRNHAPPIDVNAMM

SMILES	EC50 [1] [µM]	fold induction at 33.3 µM [1]	Rel Max FI, 27-63 assay [1]	EC50 (Bombyx mori EcR (VBE)) [µM]	fold induction at 33 µM (Bombyx mori EcR (VBE))	Rel Max FI, Z3 assay (Bombyx mori EcR (VBE))	Insect Toxicity LC50, WFN (WFN (white fly)) [ppm]	Insect Toxicity LC50, TBW (Tobacco Budworm) [ppm]	EC50 [2] [µM]	fold induction at 33.3 µM [2]	Rel Max FI, 13B3 assay [2]	Insect Toxicity LC50, BAW (Beet Armyworm) [ppm]	Insect Toxicity LC50, MTA [3] [ppm]	Insect Toxicity LC50, CL (Cabbage Looper) [ppm]	EC50 [4] [µM]	Insect Toxicity % control @ 150 ppm, WFN (WFN (white fly)) [% @ 150]	Insect Toxicity % control @ 150 ppm, MTA [3] [% @ 150]	also measured
CCc1c(OC)cccc1C(=O)NN1C(c2ccccc2)=NOC1(C)CC (stereo not drawn) [RG-120076]	~20	4090	1.4	12.4	0.2	0.9	>150	>150	> 33.3	20.2	0.05	47	92	47	0.00835			
CCc1ccc(C(=O)NN2C(c3cc(C)cc(C)c3)=NOC2(C)C)cc1 [RG-120060]	> 33		0.01		108			>150		16.8		23		47		0	0	Kd ([4]; GST fusion protein, read-out: CfEcR Kd): 0.038 µM
CCc1c(OC)cccc1C(=O)NN1C(c2cc(C)cc(C)c2)=NOC1(C)C [RG-120080, N-[3-(3,5-dimethyl-phenyl)-5,5-dimethyl-[1,2,4]oxadiazol-4-yl]-2-ethyl-3-methoxy-benzamide]	8.35		1.29	3.95	310	0.71		>150	12.3	717	1.04	23		47		0	0	Kd [4]: 0.0119 µM
CCc1c(OC)cccc1C(=O)NN1C(c2cc(C)cc(C)c2)=NOC1(C)CC (stereo not drawn) [RG-120069]	3.31	1870	1.11	1.68		0.8	>150	>150	2.95	478	1.02	4.7	146	4.7	0.0142			
COc1cccc(C(=O)NN2C(c3ccccc3)=NOC2(C)C)c1C [RG-120042, N-(5,5-dimethyl-3-phenyl-[1,2,4]oxadiazol-4-yl)-3-methoxy-2-methyl-benzamide]	> 33		0		19.3					3.3								EC50 (Plodia): 0.481 µM; EC50 (Kc): 29 µM; melting point: 141 to 142 °C
CCc1ccc(C(=O)NN2C(c3ccccc3)=NOC23CCCC3)cc1 [RG-120125]	~20	510	0.27	10	254	0.67	150	>150	> 33.3	82.6	0.16	98	167	23				EC50 ([4]; GST fusion protein, read-out: CfEcR EC50): 0.0579 µM

Reference: patent publication US8669072B2, “Oxadiazoline ligands for modulating the expression of exogenous genes via an ecdysone receptor complex” (Intrexon Corporation, priority 2003, dated 2014)
